Test results published in US20080009523A1, “New Pyridine Analogues IV” (ASTRAZENECA AB, priority 2006, published 2008).

Target: T1, P2Y12 receptor (Homo sapiens, UniProt Q9H244)
T1 construct: expressed in transfected cells; host or cells: CHO cells (membrane preparation)
Experiment: Functional inhibition of 2-Me-S-ADP induced P2Y12 signalling (35S-GTPγS, membranes from P2Y12 transfected CHO-cells)
Type: biochemical
Conditions: EC80 concentration of agonist 2-methyl-thio-adenosine diphosphate, 30° C., 45 min
Experimental: Functional inhibition of the P2Y12 receptor can be measured by in vitro assays using cell membranes from P2Y12 transfected CHO-cells, the methodology is indicated below.
Functional inhibition of 2-Me-S-ADP induced P2Y12 signalling: 5 μg of membranes were diluted in 200 μl of 200 mM NaCl, 1 mM MgCl2, 50 mM HEPES (pH 7.4), 0.01% BSA, 30 μg/ml saponin and 10 μM GDP. To this was added an EC80 concentration of agonist (2-methyl-thio-adenosine diphosphate), the required concentration of test compound and 0.1 μCi ^35S-GTPγS. The reaction was allowed to proceed at 30° C. for 45 min. Samples were then transferred on to GF/B filters using a cell harvester and washed with wash buffer (50 mM Tris (pH 7.4), 5 mM MgCl2, 50 mM NaCl). Filters were then covered with scintilant and counted for the amount of ^35S-GTPγS retained by the filter. Maximum activity was that determined in the presence of the agonist and minimum activity in the absence of the agonist following subtraction of the value determined for non-specific activity. The effect of compounds at various concentrations was plotted according to the equation […]
y=A+((B−A)/(1+((C/x)̂D)))
A is the bottom plateau of the curve i.e. the final minimum y value
B is the top of the plateau of the curve i.e. the final maximum y value
C is the x value at the middle of the curve. This represents the log EC50 value when A+B=100 […]

T1 sequence (Q9H244 whole entry): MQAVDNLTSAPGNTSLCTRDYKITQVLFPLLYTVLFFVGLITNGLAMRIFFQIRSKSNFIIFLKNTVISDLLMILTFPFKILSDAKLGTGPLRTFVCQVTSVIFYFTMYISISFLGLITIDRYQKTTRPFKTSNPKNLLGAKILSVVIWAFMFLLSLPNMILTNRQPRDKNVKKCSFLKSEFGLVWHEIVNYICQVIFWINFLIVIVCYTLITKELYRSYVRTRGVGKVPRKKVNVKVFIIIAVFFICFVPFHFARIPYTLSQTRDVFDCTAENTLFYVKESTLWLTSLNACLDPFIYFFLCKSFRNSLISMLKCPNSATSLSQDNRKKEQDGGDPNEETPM

Row | IC50 [nM] | SMILES
1 | 640 | CCOC(=O)c1cc(C#N)c(N2CCC(S(=O)(=O)NS(=O)(=O)Cc3ccccc3)CC2)nc1C [Example 2, ethyl 6-(4-{[(benzylsulfonyl)amino]sulfonyl}piperidin-1-yl)-5-cyano-2-methylnicotinate]
2 | 300 | CCOC(=O)c1cc(C#N)c(N2CCC(S(=O)(=O)NC(=O)Cc3ccc(F)cc3)CC2)nc1C [Example 4, Ethyl 5-cyano-6-[4-({[(4-fluorophenyl)acetyl]amino}sulfonyl)piperidin-1-yl]-2-methylnicotinate]
